As usually defined, the EC50 is the midpoint of the concentration-response curve. For orientation: Emax means the maximal effect, on the per cent scale that the assay sets.

The record followed here is patent publication US20230265151A1, “GIP/GLP1 CO-AGONIST COMPOUNDS” (priority 2020, published 2023).

Each structure is given as a SMILES string. Where two headings read alike, the source gives them in different places. Some results are limits rather than exact numbers.

Holding throughout (assay type): cell-based
For one experiment, the target named is T1, hGIPR (Homo sapiens, UniProt P48546).
T1 construct: expressed in transfected cells
T1 sequence (P48546 22-466): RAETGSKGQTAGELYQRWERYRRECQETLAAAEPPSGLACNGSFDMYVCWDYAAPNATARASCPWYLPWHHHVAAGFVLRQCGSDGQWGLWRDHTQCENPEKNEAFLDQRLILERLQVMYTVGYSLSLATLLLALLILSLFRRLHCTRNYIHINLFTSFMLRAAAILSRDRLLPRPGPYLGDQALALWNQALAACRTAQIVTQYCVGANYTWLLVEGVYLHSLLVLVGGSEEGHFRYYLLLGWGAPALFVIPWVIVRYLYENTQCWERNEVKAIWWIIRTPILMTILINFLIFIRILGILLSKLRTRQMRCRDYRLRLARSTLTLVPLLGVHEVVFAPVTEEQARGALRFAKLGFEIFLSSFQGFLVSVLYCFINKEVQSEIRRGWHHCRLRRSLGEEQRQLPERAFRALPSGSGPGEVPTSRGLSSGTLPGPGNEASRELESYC
Put plainly: Functional cAMP formation (HTRF) in HEK-293 clonal cells expressing hGIPR, 0.1% bovine casein, without or with 1.0% human serum albumin. To be noted: for EC50: geometric mean. The method in brief: (§1)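 Cells were stimulated with peptide for 30 min at 37° C, then lysed in buffer carrying cAMP-d2 and anti-cAMP Eu3+-cryptate for a competitive HTRF read after at least 60 min at room temperature. The 665/620 nm ratio was converted to nM cAMP against a standard curve.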

Another experiment deals with T2, hGCGR (Homo sapiens, UniProt P47871).
T2 construct: expressed in transfected cells
T2 sequence (P47871 26-477): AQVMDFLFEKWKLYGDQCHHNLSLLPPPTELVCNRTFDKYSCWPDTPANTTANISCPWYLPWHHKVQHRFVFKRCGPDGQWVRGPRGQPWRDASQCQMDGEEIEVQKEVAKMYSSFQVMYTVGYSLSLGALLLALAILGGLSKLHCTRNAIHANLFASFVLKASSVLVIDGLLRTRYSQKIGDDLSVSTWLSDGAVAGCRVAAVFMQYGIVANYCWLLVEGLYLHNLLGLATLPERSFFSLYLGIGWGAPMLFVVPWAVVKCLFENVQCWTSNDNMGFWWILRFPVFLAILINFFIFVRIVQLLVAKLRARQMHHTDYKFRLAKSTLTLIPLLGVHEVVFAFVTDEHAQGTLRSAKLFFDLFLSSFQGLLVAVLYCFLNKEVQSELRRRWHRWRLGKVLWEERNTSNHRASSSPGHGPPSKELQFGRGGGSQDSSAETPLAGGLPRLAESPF
Put plainly: Functional cAMP formation (HTRF) in HEK-293 clonal cells expressing hGCGR, 0.1% bovine casein, without or with 1.0% human serum albumin. The method in brief: as §1

The next experiment addresses hGLP-1R (Homo sapiens, UniProt P43220). Kind of experiment: Functional cAMP formation (HTRF) in HEK-293 clonal cells expressing hGLP-1R, 0.1% bovine casein, without or with 1.0% human serum albumin. Further details: expressed in transfected cells. To be noted: for EC50: geometric mean. The method in brief:
as §1
For orientation: cAMP levels reflect the balance of adenylyl cyclase and phosphodiesterase activity.

Setting [1] is: 0.1% bovine casein and 1.0% human serum albumin, 37° C., read-out: hGIPR EC50, nM (SEM, n).
Where [2] appears, read: HEK293, 0.1% bovine casein and 1.0% human serum albumin, 37° C., percent of maximal response to GIP(1-42)NH2, read-out: hGIPR Emax, % ± SEM.
The mark [3] stands for this setting: 0.1% bovine casein and 1.0% human serum albumin, 37° C., geometric mean, read-out: hGCGR EC50, nM (SEM, n).
The mark [4] stands for this setting: cAMP, incubated at 37° C., 0.1% bovine casein (no human serum albumin), geometric mean, read-out: hGCGR EC50, nM (SEM, n).

hGLP-1R, sequence (P43220 24-463): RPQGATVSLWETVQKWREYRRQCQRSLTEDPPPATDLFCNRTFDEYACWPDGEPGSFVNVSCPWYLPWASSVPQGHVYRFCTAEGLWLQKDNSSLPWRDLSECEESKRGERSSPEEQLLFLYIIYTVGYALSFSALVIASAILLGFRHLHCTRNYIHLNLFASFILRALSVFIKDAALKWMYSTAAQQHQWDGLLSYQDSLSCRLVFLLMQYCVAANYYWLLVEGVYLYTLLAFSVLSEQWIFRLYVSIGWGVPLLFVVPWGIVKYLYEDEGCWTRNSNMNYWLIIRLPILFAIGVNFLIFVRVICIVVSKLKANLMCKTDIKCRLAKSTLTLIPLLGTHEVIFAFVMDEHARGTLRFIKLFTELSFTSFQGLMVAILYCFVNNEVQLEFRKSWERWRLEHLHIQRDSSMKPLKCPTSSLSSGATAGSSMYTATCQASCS

As to `CC[C@H](C)[C@H](NC(=O)[C@H](CC(C)C)NC(=O)[C@](C)(Cc1ccc(O)cc1)NC(=O)[C@@H](CCC(=O)O)NC(=O)[C@@H](NC(=O)[C@H](Cc1ccccc1)NC(=O)[C@H](CCC(=O)O)NC(=O)C(C)(C)NC(=O)[C@H](CCC(N)=O)NC(=O)[C@H](C)NC(=O)[C@H](CCCCNC(=O)COCCOCCNC(=O)COCCOCCNC(=O)CC[C@H](NC(=O)CCCc1ccc(C(C)(C)C)cc1)C(=O)O)NC(=O)[C@H](CCCN)NC(=O)[C@H](CC(=O)O)NC(=O)[C@H](CC(C)C)NC(=O)[C@](C)(CC(C)C)NC(=O)[C@@H](NC(=O)[C@H](CO)NC(=O)[C@H](Cc1ccncc1)NC(=O)[C@H](CC(=O)O)NC(=O)[C@H](CO)NC(=O)[C@@H](NC(=O)[C@](C)(Cc1ccccc1F)NC(=O)[C@@H](NC(=O)CNC(=O)[C@H](CCC(=O)O)NC(=O)C(C)(C)NC(=O)[C@@H](N)Cc1ccc(O)cc1)[C@@H](C)O)[C@@H](C)O)[C@@H](C)CC)[C@@H](C)CC)C(=O)N[C@@H](CCCCNC(=O)COCCOCCNC(=O)COCCOCCNC(=O)CC[C@H](NC(=O)CCCc1ccc(C(C)(C)C)cc1)C(=O)O)C(=O)NCC(=O)NCC(=O)N1CCC[C@H]1C(=O)N[C@@H](CO)C(=O)N[C@@H](CO)C(=O)NCC(=O)N[C@@H](C)C(=O)N1CCC[C@H]1C(=O)N1CCC[C@H]1C(=O)N1CCC[C@H]1C(=O)N[C@@H](CO)C(N)=O` [Example 133], the half-maximal effective concentration (EC50) on hGIPR (setting [1]) is 0.0695 nM; at hGIPR (cAMP, incubated at 37° C., 0.1% bovine casein (no human serum albumin), read-out: hGIPR EC50, nM (SEM, n)), 0.018 nM; at hGCGR (setting [3]), more than 9950 nM; at hGCGR (setting [4]), more than 9950 nM; at hGLP-1R (0.1% bovine casein and 1.0% human serum albumin, 37° C., read-out: hGLP-1R EC50, nM (SEM, n)), 1.17 nM. Besides, the Emax at hGIPR (setting [2]) came out at 89.1 ± 4.64%.
`CC[C@H](C)[C@H](NC(=O)[C@H](CC(C)C)NC(=O)[C@](C)(Cc1ccc(O)cc1)NC(=O)[C@@H](CCC(=O)O)NC(=O)[C@@H](NC(=O)[C@H](Cc1ccccc1)NC(=O)[C@H](CCC(=O)O)NC(=O)C(C)(C)NC(=O)[C@H](CCC(N)=O)NC(=O)[C@H](C)NC(=O)[C@H](CCCCNC(=O)COCCOCCNC(=O)COCCOCCNC(=O)CC[C@H](NC(=O)CCCCCCCCCOc1ccc(C(=O)O)cc1)C(=O)O)NC(=O)[C@H](CCCN)NC(=O)[C@H](CC(=O)O)NC(=O)[C@H](CC(C)C)NC(=O)[C@](C)(CC(C)C)NC(=O)[C@@H](NC(=O)C(C)(C)NC(=O)[C@@H](NC(=O)[C@H](CC(=O)O)NC(=O)[C@H](CO)NC(=O)[C@@H](NC(=O)[C@](C)(Cc1ccccc1F)NC(=O)[C@@H](NC(=O)CNC(=O)[C@H](CCC(=O)O)NC(=O)C(C)(C)NC(=O)[C@@H](N)Cc1ccc(O)cc1)[C@@H](C)O)[C@@H](C)O)C(C)C)[C@@H](C)CC)[C@@H](C)CC)C(=O)N[C@@H](CCCCNC(=O)COCCOCCNC(=O)COCCOCCNC(=O)CC[C@H](NC(=O)CCCCCCCCCOc1ccc(C(=O)O)cc1)C(=O)O)C(=O)NCC(=O)NCC(=O)N1CCC[C@H]1C(=O)N[C@@H](CO)C(=O)N[C@@H](CO)C(=O)NCC(=O)N[C@@H](C)C(=O)N1CCC[C@H]1C(=O)N1CCC[C@H]1C(=O)N1CCC[C@H]1C(=O)N[C@@H](CO)C(N)=O` [Example 326]: the maximum response (Emax) at hGIPR (HEK293, read-out: hGIPR Emax, % ± SEM, cAMP, 37° C., 0.1% bovine casein and 1.0% human serum albumin, percent of maximal response to GIP(1-42)NH2) was determined as 88.7%; at hGLP-1R (HEK293, read-out: hGLP-1R Emax, % ± SEM, cAMP, 37° C., 0.1% bovine casein and 1.0% human serum albumin, percent of maximal response to GLP-1(7-36)NH2), 96.1%; on hGLP-1R (HEK293, read-out: hGLP-1R Emax, % ± SEM, cAMP, 37° C., 0.1% bovine casein, percent of maximal response to GLP-1(7-36)NH2, arithmetic mean), 94.4%. In addition, the EC50 at hGIPR (hGIPR EC50, nM (SEM, n), cAMP, 37° C., 0.1% bovine casein (no human serum albumin)) was 0.0338 nM; at hGCGR (hGCGR EC50, nM (SEM, n), cAMP, 37° C., 0.1% bovine casein (no human serum albumin), geometric mean) it was more than 9950 nM; at hGCGR (hGCGR EC50, nM (SEM, n), cAMP, 37° C., 0.1% bovine casein and 1.0% human serum albumin, geometric mean (SEM, n)), more than 9950 nM; at hGLP-1R (hGLP-1R EC50, nM (SEM, n), cAMP, 37° C., 0.1% bovine casein (no human serum albumin)), 0.186 nM.
`CC[C@H](C)[C@H](NC(=O)[C@H](CC(C)C)NC(=O)[C@](C)(Cc1ccc(O)cc1)NC(=O)[C@@H](CCC(=O)O)NC(=O)[C@@H](NC(=O)[C@H](Cc1ccccc1)NC(=O)[C@H](CCC(=O)O)NC(=O)C(C)(C)NC(=O)[C@H](CCC(N)=O)NC(=O)[C@H](C)NC(=O)[C@H](CCCCNC(=O)COCCOCCNC(=O)COCCOCCNC(=O)CCCCCCCCCCCCC(=O)O)NC(=O)[C@H](CCCN)NC(=O)[C@H](CC(=O)O)NC(=O)[C@H](CC(C)C)NC(=O)[C@](C)(CC(C)C)NC(=O)[C@@H](NC(=O)C(C)(C)NC(=O)[C@H](Cc1ccncc1)NC(=O)[C@H](CC(=O)O)NC(=O)[C@H](CO)NC(=O)[C@@H](NC(=O)[C@](C)(Cc1ccccc1F)NC(=O)[C@@H](NC(=O)CNC(=O)[C@H](CCC(=O)O)NC(=O)C(C)(C)NC(=O)[C@@H](N)Cc1ccc(O)cc1)[C@@H](C)O)[C@@H](C)O)[C@@H](C)CC)[C@@H](C)CC)C(=O)N[C@@H](CCCCNC(=O)COCCOCCNC(=O)COCCOCCNC(=O)CCCCCCCCCCCCC(=O)O)C(=O)NCC(=O)NCC(=O)N1CCC[C@H]1C(=O)N[C@@H](CO)C(=O)N[C@@H](CO)C(=O)NCC(=O)N[C@@H](C)C(=O)N1CCC[C@H]1C(=O)N1CCC[C@H]1C(=O)N1CCC[C@H]1C(=O)N[C@@H](CO)C(N)=O` [Example 387]: the maximal effect (Emax) on hGIPR (HEK293, cAMP, 37° C., 0.1% bovine casein and 1.0% human serum albumin, percent of maximal response to GIP(1-42)NH2, read-out: hGIPR Emax, % ± SEM) is 93%. Moreover, the EC50 on hGIPR (cAMP, 37° C., 0.1% bovine casein (no human serum albumin), read-out: hGIPR EC50, nM (SEM, n)) was 0.0137 nM; at hGCGR (cAMP, 37° C., 0.1% bovine casein (no human serum albumin), geometric mean, read-out: hGCGR EC50, nM (SEM, n)) it was more than 9950 nM; on hGCGR (cAMP, 37° C., 0.1% bovine casein and 1.0% human serum albumin, geometric mean (SEM, n), read-out: hGCGR EC50, nM (SEM, n)), more than 9950 nM; on hGLP-1R (cAMP, 37° C., 0.1% bovine casein (no human serum albumin), read-out: hGLP-1R EC50, nM (SEM, n)), 0.32 nM.
`CC[C@H](C)[C@H](NC(=O)[C@H](CC(C)C)NC(=O)[C@](C)(Cc1ccc(O)cc1)NC(=O)[C@@H](CCC(=O)O)NC(=O)[C@@H](NC(=O)[C@H](Cc1ccccc1)NC(=O)[C@H](CCC(=O)O)NC(=O)C(C)(C)NC(=O)[C@H](CCC(N)=O)NC(=O)[C@H](C)NC(=O)[C@H](CCCCNC(=O)COCCOCCNC(=O)COCCOCCNC(=O)CC[C@H](NC(=O)CCCCCCCCCCCCC(=O)O)C(=O)O)NC(=O)[C@H](CCCN)NC(=O)[C@H](CC(=O)O)NC(=O)[C@H](CC(C)C)NC(=O)[C@](C)(CC(C)C)NC(=O)[C@@H](NC(=O)[C@H](CO)NC(=O)C1(NC(=O)[C@H](CC(=O)O)NC(=O)[C@H](CO)NC(=O)[C@@H](NC(=O)[C@](C)(Cc2ccccc2F)NC(=O)[C@@H](NC(=O)CNC(=O)[C@H](CCC(=O)O)NC(=O)C(C)(C)NC(=O)[C@@H](N)Cc2ccc(O)cc2)[C@@H](C)O)[C@@H](C)O)CCC1)[C@@H](C)CC)[C@@H](C)CC)C(=O)N[C@@H](CCC(=O)O)C(=O)NCC(=O)NCC(=O)N[C@@H](CCCCNC(=O)COCCOCCNC(=O)COCCOCCNC(=O)CC[C@H](NC(=O)CCCCCCCCCCCCC(=O)O)C(=O)O)C(=O)N[C@@H](CO)C(=O)N[C@@H](CO)C(=O)NCC(=O)N[C@@H](C)C(=O)N1CCC[C@H]1C(=O)N1CCC[C@H]1C(=O)N1CCC[C@H]1C(=O)N[C@@H](CO)C(N)=O` [Example 95]: the EC50 was 4.68 nM on hGIPR (setting [1]), more than 9950 nM at hGCGR (setting [3]) and more than 9950 nM on hGCGR (setting [4]). The maximum response (Emax) on hGIPR (setting [2]) was found to be 86.9%; on hGIPR (HEK293, percent of maximal response to GIP(1-42)NH2, 37° C., 0.1% bovine casein, arithmetic mean, read-out: hGIPR Emax, % ± SEM) it was 97.3%; at hGLP-1R (HEK293, 0.1% bovine casein and 1.0% human serum albumin, 37° C., percent of maximal response to GLP-1(7-36)NH2, read-out: hGLP-1R Emax, % ± SEM) it was 84%; at hGLP-1R (HEK293, percent of maximal response to GLP-1(7-36)NH2, 37° C., 0.1% bovine casein, arithmetic mean, read-out: hGLP-1R Emax, % ± SEM), 86.9%.
